Laboratory results reported in US20260116868A1 (Arcus Biosciences, Inc., priority 2023, published 2026).

What follows are molecules tested against T1, Cbl-b (Homo sapiens, UniProt Q13191) (assay: Cbl-b probe displacement HTRF binding assay). Details: 0.4 nM Cbl-b, 150 nM BODIPY probe.
T1 construct: biotin (biotinylated protein)
T1 sequence (Q13191 whole entry, species assumed): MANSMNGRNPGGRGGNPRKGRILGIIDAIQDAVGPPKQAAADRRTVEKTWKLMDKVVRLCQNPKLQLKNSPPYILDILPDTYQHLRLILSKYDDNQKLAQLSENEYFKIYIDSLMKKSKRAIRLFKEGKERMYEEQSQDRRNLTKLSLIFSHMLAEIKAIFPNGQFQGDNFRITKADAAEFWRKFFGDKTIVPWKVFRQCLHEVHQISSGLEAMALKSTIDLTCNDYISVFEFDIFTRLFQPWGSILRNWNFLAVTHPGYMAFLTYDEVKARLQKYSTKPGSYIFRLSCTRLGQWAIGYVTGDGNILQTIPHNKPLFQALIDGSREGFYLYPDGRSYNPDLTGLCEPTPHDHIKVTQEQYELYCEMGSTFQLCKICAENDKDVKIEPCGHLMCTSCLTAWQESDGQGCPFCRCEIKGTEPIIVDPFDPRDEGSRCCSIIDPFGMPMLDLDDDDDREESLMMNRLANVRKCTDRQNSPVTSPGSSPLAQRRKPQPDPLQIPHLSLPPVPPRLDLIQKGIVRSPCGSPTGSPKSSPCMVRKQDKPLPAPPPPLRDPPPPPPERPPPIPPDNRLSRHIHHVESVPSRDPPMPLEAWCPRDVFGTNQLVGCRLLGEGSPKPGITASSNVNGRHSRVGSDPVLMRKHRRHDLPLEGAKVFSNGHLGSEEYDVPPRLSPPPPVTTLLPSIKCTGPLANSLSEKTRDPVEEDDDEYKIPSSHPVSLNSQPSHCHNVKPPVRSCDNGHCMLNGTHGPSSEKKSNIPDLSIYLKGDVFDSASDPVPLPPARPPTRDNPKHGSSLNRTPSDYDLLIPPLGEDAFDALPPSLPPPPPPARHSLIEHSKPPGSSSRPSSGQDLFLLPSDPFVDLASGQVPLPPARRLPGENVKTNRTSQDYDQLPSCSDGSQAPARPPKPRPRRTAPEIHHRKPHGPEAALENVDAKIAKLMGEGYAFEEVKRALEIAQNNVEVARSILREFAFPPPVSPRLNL
Method: The affinity with which compounds of the present disclosure bind to Cbl-b was assessed using probe displacement homologous time resolved fluorescence (HTRF) assays. The assays used a BODIPY™ conjugated probe (Example 54 from WO 2020264398) and biotinylated Cbl-b. The assays were performed in assay buffer consisting of 20 mM Hepes, 150 mM NaCl, 0.01% Triton X-100, 0.5 mM TCEP, 0.01% BSA. On the day of the assay, a 20 point, 1:2 master serial dilution of each compound was prepared in DMSO to span a final concentration range of […] to 0 nM. Two hundred nanoliters of diluted compound was added to each well of a 384-well plate. Fifteen microliters of biotinylated- Cbl-b resuspended in assay buffer were added to each well and the plate incubated for 60 minutes at room temperature prior to addition of 5 μL of BODIPY™ probe in assay buffer. Final assay conditions included 0.4 nM of Cbl-b and 150 nM of BODIPY™ probe. After a further 15 minutes of incubation at room temperature, 5 μl of Streptavidin-Terbium cryptate reagent at 5-fold final concentration was added to each well of the 384-well plate. Binding of a probe to Cbl-b results in an increase of HTRF signal. HTRF signal was measured by Envision plate reader, while competition of a compound of the present disclosure with probe results in a decrease of signal. Percentage maximum activity in each test well was calculated based on DMSO (maximum activity, 0% displacement) and no protein control wells (baseline activity, 100% displacement). Binding affinity was determined from a dose response curve fitted using a standard four parameter fit equation. See Table 7 for data for compounds (Cbl-b Binding (IC50)).
`CCOc1cc(-c2ccc(Cl)cc2C(=O)N2CC(F)(F)C2)cc(NC(=O)c2cc(CNCC3(F)CCC3)cn(C3CC3)c2=O)n1` [Example 121, N-(4-{4-chloro-2-[(3,3-difluoro-1-azetidinyl)carbonyl]phenyl}-6-ethoxy-2-pyridyl)-1-cyclopropyl-5-({[(1-fluorocyclobutyl)methyl]amino}methyl)-2-oxo-1,2-dihydronicotinamide] was tested, and the IC50 was < 100 nM. In the case of `CCOc1cc(-c2ccc(Cl)cc2C(=O)N2CC(F)(F)C2)cc(NC(=O)c2cc(CN[C@@H](C)C3CCC3)cn(C3CC3)c2=O)n1` [Example 122, N-(4-{4-chloro-2-[(3,3-difluoro-1-azetidinyl)carbonyl]phenyl}-6-ethoxy-2-pyridyl)-5-{[(S)-1-cyclobutylethylamino]methyl}-1-cyclopropyl-2-oxo-1,2-dihydronicotinamide], the IC50 is reported as < 100 nM. In the case of `CCOc1cc(-c2ccc(Cl)cc2C(=O)N2CC(F)(F)C2)cc(NC(=O)c2cc(CNC[C@H](C)OC)cn(C3CC3)c2=O)n1` [Example 123, N-(4-{4-chloro-2-[(3,3-difluoro-1-azetidinyl)carbonyl]phenyl}-6-ethoxy-2-pyridyl)-1-cyclopropyl-5-{[(S)-2-methoxypropylamino]methyl}-2-oxo-1,2-dihydronicotinamide], the IC50 is reported as < 100 nM. `CCOc1cc(-c2ccc(Cl)cc2C(=O)N2CC(F)(F)C2)cc(NC(=O)c2cc(CN[C@@H](C)C3CC3)cn(C3CC3)c2=O)n1` [Example 124] was tested, and the IC50 was < 100 nM. For `CO[C@@H](C)[C@H](C)NCc1cc(C(=O)Nc2cc(-c3c(F)cc(C#N)cc3C(=O)N3CC(F)(F)C3)cc(C3CC3)n2)c(=O)n(C2CC2)c1` [Example 125, N-(4-{4-cyano-2-[(3,3-difluoro-1-azetidinyl)carbonyl]-6-fluorophenyl}-6-cyclopropyl-2-pyridyl)-1-cyclopropyl-5-{[(1S,2S)-2-methoxy-1-methylpropylamino]methyl}-2-oxo-1,2-dihydronicotinamide], the IC50 was < 100 nM. `CC(C)Oc1cc(-c2c(F)cc(C#N)cc2C(=O)N2CC(F)(F)C2)cc(NC(=O)c2cc(CN[C@@H](C)C3CCC3)cn(C3CC3)c2=O)n1` [Example 126] was tested, and the IC50 was < 100 nM. For `CO[C@@H](C)CNCc1cc(C(=O)Nc2cc(-c3c(F)cc(C#N)cc3C(=O)N3CC(F)(F)C3)cc(OC(C)C)n2)c(=O)n(C2CC2)c1` [Example 127, N-(4-{4-cyano-2-[(3,3-difluoro-1-azetidinyl)carbonyl]-6-fluorophenyl}-6-isopropoxy-2-pyridyl)-1-cyclopropyl-5-{[(S)-2-methoxypropylamino]methyl}-2-oxo-1,2-dihydronicotinamide], the IC50 was < 100 nM. With `CC(C)CNCc1cc(C(=O)Nc2cc(-c3c(F)cc(C#N)cc3C(=O)N3CC(F)(F)C3)cc(OC(C)C)n2)c(=O)n(C2CC2)c1` [Example 128, N-(4-{4-cyano-2-[(3,3-difluoro-1-azetidinyl)carbonyl]-6-fluorophenyl}-6-isopropoxy-2-pyridyl)-1-cyclopropyl-5-[(isobutylamino)methyl]-2-oxo-1,2-dihydronicotinamide] the IC50 was < 100 nM. In the case of `CC(C)CNCc1cc(C(=O)Nc2cc(-c3ccc(C#N)cc3C(=O)N3CC(F)(F)C3)cc(OCC(F)F)n2)c(=O)n(C2CC2)c1` [Example 129, N-(4-{4-cyano-2-[(3,3-difluoro-1-azetidinyl)carbonyl]phenyl}-6-(2,2-difluoroethoxy)-2-pyridyl)-1-cyclopropyl-5-[(isobutylamino)methyl]-2-oxo-1,2-dihydronicotinamide], the IC50 is reported as < 100 nM. `C[C@H](NCc1cc(C(=O)Nc2cc(-c3ccc(C#N)cc3C(=O)N3CC(F)(F)C3)cc(OCC(F)F)n2)c(=O)n(C2CC2)c1)C1CCC1` [Example 130, N-(4-{4-cyano-2-[(3,3-difluoro-1-azetidinyl)carbonyl]phenyl}-6-(2,2-difluoroethoxy)-2-pyridyl)-5-{[(S)-1-cyclobutylethylamino]methyl}-1-cyclopropyl-2-oxo-1,2-dihydronicotinamide] was tested, and the IC50 was < 100 nM. In the case of `CO[C@@H](C)CNCc1cc(C(=O)Nc2cc(-c3ccc(C#N)cc3C(=O)N3CC(F)(F)C3)cc(OCC(F)F)n2)c(=O)n(C2CC2)c1` [Example 131, N-(4-{4-cyano-2-[(3,3-difluoro-1-azetidinyl)carbonyl]phenyl}-6-(2,2-difluoroethoxy)-2-pyridyl)-1-cyclopropyl-5-{[(S)-2-methoxypropylamino]methyl}-2-oxo-1,2-dihydronicotinamide], the IC50 is reported as < 100 nM. In the case of `N#Cc1ccc(-c2cc(NC(=O)c3cc(CNC[C@@H]4CCCO4)cn(C4CC4)c3=O)nc(OCC(F)F)c2)c(C(=O)N2CC(F)(F)C2)c1` [Example 132, N-(4-{4-cyano-2-[(3,3-difluoro-1-azetidinyl)carbonyl]phenyl}-6-(2,2-difluoroethoxy)-2-pyridyl)-1-cyclopropyl-2-oxo-5-[({[(S)-perhydro-2-furyl]methyl}amino)methyl]-1,2-dihydronicotinamide], the IC50 is reported as < 100 nM. With `O=C(Nc1cc(-c2ccc(Cl)cc2C(=O)N2CC(F)(F)C2)cc(C2CC2)n1)c1cc(CNC[C@@H]2COCCO2)cn(C2CC2)c1=O` [Example 133, N-(4-{4-chloro-2-[(3,3-difluoro-1-azetidinyl)carbonyl]phenyl}-6-cyclopropyl-2-pyridyl)-1-cyclopropyl-5-[({[(R)-1,4-dioxan-2-yl]methyl}amino)methyl]-2-oxo-1,2-dihydronicotinamide] the IC50 was < 100 nM. In the case of `CC(C)CNCc1cc(C(=O)Nc2cc(-c3ccc(Cl)cc3C(=O)N3CC(F)(F)C3)cc(C3CC3)n2)c(=O)n(C2CC2)c1` [Example 134, N-(4-{4-chloro-2-[(3,3-difluoro-1-azetidinyl)carbonyl]phenyl}-6-cyclopropyl-2-pyridyl)-1-cyclopropyl-5-[(isobutylamino)methyl]-2-oxo-1,2-dihydronicotinamide], the IC50 is reported as < 100 nM. In the case of `C[C@H](NCc1cc(C(=O)Nc2cc(-c3ccc(Cl)cc3C(=O)N3CC(F)(F)C3)cc(C3CC3)n2)c(=O)n(C2CC2)c1)C1CC1` [Example 135, N-(4-{4-chloro-2-[(3,3-difluoro-1-azetidinyl)carbonyl]phenyl}-6-cyclopropyl-2-pyridyl)-1-cyclopropyl-5-{[(S)-1-cyclopropylethylamino]methyl}-2-oxo-1,2-dihydronicotinamide], the IC50 is reported as < 100 nM. With `O=C(Nc1cc(-c2ccc(Cl)cc2C(=O)N2CC(F)(F)C2)cc(C2CC2)n1)c1cc(CNCCCF)cn(C2CC2)c1=O` [Example 136, N-(4-{4-chloro-2-[(3,3-difluoro-1-azetidinyl)carbonyl]phenyl}-6-cyclopropyl-2-pyridyl)-1-cyclopropyl-5-[(3-fluoropropylamino)methyl]-2-oxo-1,2-dihydronicotinamide] the IC50 was < 100 nM. `CO[C@@H](C)CNCc1cc(C(=O)Nc2cc(-c3ccc(F)cc3C(=O)N3CC(F)(F)C3)cc(OC(C)C)n2)c(=O)n(C2CC2)c1` [Example 137, N-(4-{2-[(3,3-difluoro-1-azetidinyl)carbonyl]-4-fluorophenyl}-6-isopropoxy-2-pyridyl)-1-cyclopropyl-5-{[(S)-2-methoxypropylamino]methyl}-2-oxo-1,2-dihydronicotinamide] was tested, and the IC50 was < 100 nM. In the case of `CC(C)Oc1cc(-c2ccc(F)cc2C(=O)N2CC(F)(F)C2)cc(NC(=O)c2cc(CNC[C@@H]3CCCO3)cn(C3CC3)c2=O)n1` [Example 138, N-(4-{2-[(3,3-difluoro-1-azetidinyl)carbonyl]-4-fluorophenyl}-6-isopropoxy-2-pyridyl)-1-cyclopropyl-2-oxo-5-[({[(S)-perhydro-2-furyl]methyl}amino)methyl]-1,2-dihydronicotinamide], the IC50 is reported as < 100 nM. For `CC(C)Oc1cc(-c2ccc(F)cc2C(=O)N2CC(F)(F)C2)cc(NC(=O)c2cc(CNCC3CC3)cn(C3CC3)c2=O)n1` [Example 139, N-(4-{2-[(3,3-difluoro-1-azetidinyl)carbonyl]-4-fluorophenyl}-6-isopropoxy-2-pyridyl)-1-cyclopropyl-5-{[(cyclopropylmethyl)amino]methyl}-2-oxo-1,2-dihydronicotinamide], the IC50 was < 100 nM. In the case of `CC(C)Oc1cc(-c2ccc(C#N)cc2C(=O)N2CC(F)(F)C2)cc(NC(=O)c2cc(CNCC3(F)CCC3)cn(C3CC3)c2=O)n1` [Example 141], the IC50 is reported as < 100 nM. `CO[C@@H](C)[C@H](C)NCc1cc(C(=O)Nc2cc(-c3ccc(C#N)cc3C(=O)N3CC(F)(F)C3)cc(OC(C)C)n2)c(=O)n(C2CC2)c1` [Example 142] was tested, and the IC50 was < 100 nM. `CC(C)Oc1cc(-c2ccc(C#N)cc2C(=O)N2CC(F)(F)C2)cc(NC(=O)c2cc(CN[C@@H](C)C3CCC3)cn(C3CC3)c2=O)n1` [Example 143, N-(4-{4-cyano-2-[(3,3-difluoro-1-azetidinyl)carbonyl]phenyl}-6-isopropoxy-2-pyridyl)-5-{[(S)-1-cyclobutylethylamino]methyl}-1-cyclopropyl-2-oxo-1,2-dihydronicotinamide] was tested, and the IC50 was < 100 nM. With `O=C(Nc1cc(-c2c(F)cc(Cl)cc2C(=O)N2CC(F)(F)C2)cc(C2CC2)n1)c1cc(CNC[C@@H]2CCCO2)cn(C2CC2)c1=O` [Example 145, N-(4-{4-chloro-2-[(3,3-difluoro-1-azetidinyl)carbonyl]-6-fluorophenyl}-6-cyclopropyl-2-pyridyl)-1-cyclopropyl-2-oxo-5-[({[(S)-perhydro-2-furyl]methyl}amino)methyl]-1,2-dihydronicotinamide] the IC50 was < 100 nM.
